The assay relates to SARS-CoV-2 (USA-WA1/2020) in Calu-3 cells. The format is cell-based. The conditions noted are these: Calu-3, 48 h; for dsRNA signal, AU High: high dose (10 µM); for dsRNA signal, AU Low: low dose (100 nM).

Where a name gives a salt, the structure may show the parent alone.

Consider `Cc1ncc(-c2ccnc(Nc3ccc(S(C)(=O)=O)cc3)n2)n1C(C)C` [AZD-5438], for which the “dsRNA signal, AU High” value is 10643.7 AU and the “dsRNA signal, AU Low” value turned out to be 32871.5 AU.
As for `CNC(=O)c1cc(Oc2ccc(NC(=O)Nc3ccc(Cl)c(C(F)(F)F)c3)c(F)c2)ccn1.Cl` [Regorafenib hydrochloride], the “dsRNA signal, AU High” value worked out at 724.9 AU and the “dsRNA signal, AU Low” value came out at 22021.0 AU.
As for `S=C(NCc1ccc2c(c1)OCO2)N1CCN(c2ncnc3c2oc2ccccc23)CC1` [Amuvatinib (MP-470, HPK 56)], the “dsRNA signal, AU High” value was determined as 6649.7 AU and the “dsRNA signal, AU Low” value is 32179.3 AU.
With `O=c1cc(-c2ccccc2)oc2c(O)c(O)ccc12` [7,8-Dihydroxyflavone], the “dsRNA signal, AU High” value was found to be 9230.6 AU and the “dsRNA signal, AU Low” value was found to be 39399.4 AU.
For the compound `COc1cc(N2CCC(N3CCN(C)CC3)CC2)ccc1Nc1ncnc(Nc2ccccc2S(=O)(=O)C(C)C)n1` [ASP3026], the “dsRNA signal, AU High” value stood at 11916.3 AU and the “dsRNA signal, AU Low” value worked out at 27995.4 AU.
Taken in the same sequence, the figures for `Nc1ccc(/C=C/C(=O)NCc2cc3cc(-c4ccc(C(=O)N5CCC(F)(F)CC5)cc4)cc(-c4ccc(F)cc4)c3o2)cn1` [KPT-9274] were 6803.0 AU and 25813.6 AU.
Taken in the same sequence, the figures for `COc1nccc(-c2c(-c3ccc(F)cc3)ncn2C2CCC(O)CC2)n1` (stereo not shown) [SB 239063] were 16458.2 AU and 15855.6 AU.
Take `COc1cc2ncnc(-n3nc(-c4ccccn4)nc3N)c2cc1OC` [CP-466722]: the “dsRNA signal, AU High” value turned out to be 23326.1 AU and the “dsRNA signal, AU Low” value is 24439.1 AU.
As to `COc1cc2nccc(Oc3ccc(NC(=O)NC4CC4)c(Cl)c3)c2cc1C(N)=O` [Lenvatinib (E7080)], the “dsRNA signal, AU High” value was 26964.0 AU and the “dsRNA signal, AU Low” value worked out at 55504.0 AU.
`O=C(NOCC1CC1)c1ccc(F)c(F)c1Nc1ccc(I)cc1Cl` [PD184352 (CI-1040)]: the “dsRNA signal, AU High” value is 0.0 AU and the “dsRNA signal, AU Low” value came out at 41067.4 AU.
Taken in the same sequence, the figures for `NCC(=O)Nc1ccc(-n2nc(C(F)(F)F)cc2-c2ccc3c(ccc4ccccc43)c2)cc1` [OSU-03012 (AR-12)] were 17565.3 AU and 17813.3 AU.
Regarding `N#CC1(c2ccc(NC(=O)c3cccnc3NCc3ccncc3)cc2)CCCC1` [Apatinib], the “dsRNA signal, AU High” value is 181.1 AU and the “dsRNA signal, AU Low” value amounted to 36614.7 AU.
Taken in the same sequence, the figures for `Cl.Cl.O=S(=O)(NCCNC/C=C/c1ccc(Br)cc1)c1cccc2cnccc12` [H 89 2HCl] were 7807.6 AU and 56279.7 AU.
In the case of `Cc1c(NC(=O)OC[C@@H]2COCCN2)cn2ncnc(Nc3ccc4c(cnn4Cc4cccc(F)c4)c3)c12` [AC480 (BMS-599626)], the “dsRNA signal, AU High” value is 468.1 AU and the “dsRNA signal, AU Low” value is reported as 62401.2 AU.
As to `Cc1[nH]nc2ccc(-c3cncc(OC[C@@H](N)Cc4ccccc4)c3)cc12` [A-674563], the “dsRNA signal, AU High” value was 0.0 AU and the “dsRNA signal, AU Low” value is recorded as 6156.4 AU.
`C[C@@H]1O[C@@H](OC[C@H]2O[C@@H](Oc3cc(O)c4c(=O)cc(-c5ccc(O)cc5)oc4c3)[C@H](O[C@@H]3O[C@@H](C)[C@H](O)[C@@H](O)[C@H]3O)[C@@H](O)[C@@H]2O)[C@H](O)[C@H](O)[C@H]1O` [Ligustroflavone]: the “dsRNA signal, AU High” value is 4049.2 AU and the “dsRNA signal, AU Low” value was 6040.1 AU.
`CC(=O)c1c(O)c(C)c(O)c2c1OC1=CC(=O)C(C(C)=O)C(=O)C12C` (single isomer, unassigned; (+)) [(+)-Usniacin]: the “dsRNA signal, AU High” value was found to be 3049.6 AU and the “dsRNA signal, AU Low” value is 59009.6 AU.
Taken in the same sequence, the figures for `CCN(CC)CC(=O)Nc1c(C)cccc1C` [Lidocaine] were 26152.6 AU and 999.3 AU.
Take `CN(c1ncccc1CNc1nc(Nc2ccc3c(c2)CC(=O)N3)ncc1C(F)(F)F)S(C)(=O)=O` [PF-562271]: the “dsRNA signal, AU High” value is 0.0 AU and the “dsRNA signal, AU Low” value worked out at 690.0 AU.
For `O=C(O)c1cc(=O)c2c(OCC(O)COc3cccc4oc(C(=O)O)cc(=O)c34)cccc2o1` [Cromolyn sodium], the “dsRNA signal, AU High” value came out at 64024.7 AU and the “dsRNA signal, AU Low” value amounted to 17957.1 AU.
As for `Cl.O=c1[nH]ccc2c(S(=O)(=O)N3CCCNCC3)cccc12` [Hydroxyfasudil hydrochloride], the “dsRNA signal, AU High” value was 2331.1 AU and the “dsRNA signal, AU Low” value was found to be 751.7 AU.
Regarding `Cn1cc(C2=C(c3cccc(N)c3)C(=O)NC2=O)c2ccccc21` [CP21R7], the “dsRNA signal, AU High” value was 5189.9 AU and the “dsRNA signal, AU Low” value stood at 2975.5 AU.
As to `Clc1ccc(C2(c3ccc(-c4cn[nH]c4)cc3)CCNCC2)cc1` [AT7867], the “dsRNA signal, AU High” value worked out at 150.0 AU and the “dsRNA signal, AU Low” value is recorded as 6554.9 AU.
Take `CCCCCCCC/C=C\CCCCCCCCCCCC(=O)O` [13(Z)-Docosenoic Acid]: the “dsRNA signal, AU High” value stood at 4336.2 AU and the “dsRNA signal, AU Low” value is given as 49926.0 AU.
In the case of `COc1ccc2c(c1)[nH]c1c(C)nccc12` [Harmine], the “dsRNA signal, AU High” value is recorded as 9958.7 AU and the “dsRNA signal, AU Low” value is given as 24294.0 AU.
Turning to `COc1cc2ncnc(Nc3cccc(Cl)c3)c2cc1OC` [AG-1478], the “dsRNA signal, AU High” value was found to be 1676.2 AU and the “dsRNA signal, AU Low” value was 67129.9 AU.
`CC(C)(C)c1cc(/C=C(\C#N)C(N)=S)cc(C(C)(C)C)c1O` [Tyrphostin AG 879]: the “dsRNA signal, AU High” value is recorded as 54.0 AU and the “dsRNA signal, AU Low” value was found to be 6760.3 AU.
On to `COc1cc(N2CCOCC2)ccc1NC(=O)c1csc(-c2cccnc2)n1` [IRAK inhibitor 6], for which the “dsRNA signal, AU High” value stood at 19776.5 AU and the “dsRNA signal, AU Low” value stood at 7334.0 AU.
Consider `O=C1Nc2ccc(I)cc2/C1=C/c1cc(Br)c(O)c(Br)c1` [GW5074], for which the “dsRNA signal, AU High” value is 14683.4 AU and the “dsRNA signal, AU Low” value is 20240.6 AU.
Taken in the same sequence, the figures for `c1cc(-c2cnn3cc(-c4ccc(OCCN5CCCCC5)cc4)cnc23)ccn1` [Dorsomorphin (Compound C)] were 6395.6 AU and 1963.8 AU.
Taken in the same sequence, the figures for `C[C@@H]1CCN(C(=O)CC#N)C[C@@H]1N(C)c1ncnc2[nH]ccc12.O=C(O)CC(O)(CC(=O)O)C(=O)O` [Tofacitinib (CP-690550) Citrate] were 57107.2 AU and 61115.5 AU.
Regarding `O=C(Nc1nccs1)C(c1cc(F)ccc1O)N1Cc2ccccc2C1=O` (stereo not shown) [EAI045], the “dsRNA signal, AU High” value is given as 0.0 AU and the “dsRNA signal, AU Low” value was determined as 14269.6 AU.
Turning to `O=[N+]([O-])/C=C/c1ccc2c(c1)OCO2` [MNS], the “dsRNA signal, AU High” value is on record as 1958.5 AU and the “dsRNA signal, AU Low” value stood at 51870.8 AU.
Taken in the same sequence, the figures for `COc1cc(Oc2ccnc3cc(OC)c(OC)cc23)ccc1NC(=O)NC(C)c1nccs1` (stereo not shown) [Ki20227] were 0.0 AU and 13064.0 AU.
On to `COCCOc1ccc2c(c1)ncn2-c1ccc2cccc(N3CCC(N)CC3)c2n1` [CP-673451], for which the “dsRNA signal, AU High” value was determined as 14720.6 AU and the “dsRNA signal, AU Low” value came out at 4566.7 AU.
For the compound `O=S(=O)(N=Cc1c(O)ccc2ccccc12)c1cccs1` [STF 083010], the “dsRNA signal, AU High” value is on record as 54363.2 AU and the “dsRNA signal, AU Low” value was found to be 46405.9 AU.
In the case of `C#Cc1cccc(Nc2ncnc3cc4c(cc23)OCCOCCOCCO4)c1` [Icotinib], the “dsRNA signal, AU High” value is given as 11365.1 AU and the “dsRNA signal, AU Low” value is on record as 24561.1 AU.
For IC-87114, the “dsRNA signal, AU High” value came to 0.0 AU and the “dsRNA signal, AU Low” value is given as 60540.6 AU.
For the compound `C[C@@H]1CC[C@@]2(OC1)O[C@H]1C[C@H]3[C@@H]4CC=C5C[C@@H](O)CC[C@]5(C)[C@H]4CC[C@]3(C)[C@H]1[C@@H]2C` [Diosgenin], the “dsRNA signal, AU High” value worked out at 0.0 AU and the “dsRNA signal, AU Low” value amounted to 2764.9 AU.
Consider `CO[C@H]1C[C@@H]2CC[C@@H](C)[C@@](O)(O2)C(=O)C(=O)N2CCCC[C@H]2C(=O)O[C@H]([C@H](C)C[C@@H]2CC[C@@H](O)[C@H](OC)C2)CC(=O)[C@H](C)/C=C(\C)[C@@H](O)[C@@H](OC)C(=O)[C@H](C)C[C@H](C)/C=C/C=C/C=C/1C` [Rapamycin (Sirolimus)], for which the “dsRNA signal, AU High” value amounted to 1745.1 AU and the “dsRNA signal, AU Low” value is on record as 58744.6 AU.
`O=C1c2c(O)ccc(O)c2C(=O)c2c(NCCNCCO)ccc(NCCNCCO)c21` [Mitoxantrone HCl]: the “dsRNA signal, AU High” value was found to be 48235.0 AU and the “dsRNA signal, AU Low” value is 23848.1 AU.
On to Anacardic acid, for which the “dsRNA signal, AU High” value is 12779.5 AU and the “dsRNA signal, AU Low” value is given as 44703.4 AU.
On to `CC[C@@H]1C(=O)N(C)c2cnc(Nc3ccc(C(=O)NC4CCN(C)CC4)cc3OC)nc2N1C1CCCC1` [BI 2536], for which the “dsRNA signal, AU High” value came to 34739.4 AU and the “dsRNA signal, AU Low” value stood at 58236.8 AU.
Taken in the same sequence, the figures for `NC(=O)c1ccc(-c2nc(-c3ccc4c(c3)OCCO4)c(-c3ccccn3)[nH]2)cc1` [D4476] were 6178.6 AU and 10405.5 AU.
With `COC(=O)Nc1nc2ccc([S+]([O-])c3ccccc3)cc2[nH]1` (stereo not shown) [Oxfendazole], the “dsRNA signal, AU High” value is reported as 20012.9 AU and the “dsRNA signal, AU Low” value is given as 47370.5 AU.
`CC(C)=CCC[C@](C)(O[C@@H]1O[C@H](CO[C@@H]2O[C@H](CO)[C@@H](O)[C@H](O)[C@H]2O)[C@@H](O)[C@H](O)[C@H]1O)[C@H]1CC[C@]2(C)[C@@H]1[C@H](O)C[C@@H]1[C@@]3(C)CC[C@H](O[C@@H]4O[C@H](CO)[C@@H](O)[C@H](O)[C@H]4O[C@@H]4O[C@H](CO)[C@@H](O)[C@H](O)[C@H]4O)C(C)(C)[C@@H]3CC[C@]12C` [Ginsenoside Rb1]: the “dsRNA signal, AU High” value is 7414.4 AU and the “dsRNA signal, AU Low” value is on record as 52585.8 AU.
Taken in the same sequence, the figures for `C=C1C(=O)[C@]23[C@H](O)[C@H]1CC[C@H]2[C@@]12CO[C@]3(O)[C@@H](O)[C@@H]1C(C)(C)CC[C@@H]2O` [Oridonin] were 6061.2 AU and 25375.1 AU.

The values above are taken from paper PMC12142043, “Cell-based high-content approach for SARS-CoV-2 neutralization identifies unique monoclonal antibodies and PI3K pathway inhibitors” (Frontiers in Cell and Developmental Biology, 2025).
